Measured values from ChEMBL document CHEMBL4837181 (Eur J Med Chem, 2020).

Experiments:
[1] = Stability in human plasma assessed as parent compound remaining measured after 6 hrs by LC-MS/MS analysis; format: ADME, cell-free; details: read-out: Stabilty
[2] = Chemical stability of compound in PBS buffer assessed as compound remaining at pH 7.4 at 5 uM measured after 24 hrs by LC-MS/MS analysis; format: physicochemical; details: read-out: Stabilty
[3] = Stability in human plasma assessed as parent compound remaining measured after 24 hrs by LC-MS/MS analysis; format: ADME, cell-free; details: read-out: Stabilty
[4] = Chemical stability of compound in simulated intestinal fluid assessed as compound remaining at 5 uM measured after 24 hrs by LC-MS/MS analysis; format: ADME, physicochemical; details: read-out: Stabilty
[5] = Chemical stability of compound in PBS buffer assessed as compound remaining at pH 7.4 at 5 uM measured after 6 hrs by LC-MS/MS analysis; format: physicochemical; details: read-out: Stabilty
[6] = Chemical stability of compound in saline assessed as compound remaining at 5 uM measured after 24 hrs by LC-MS/MS analysis; format: physicochemical; details: read-out: Stabilty
[7] = Dose normalized AUC (0 to infinity) in rat at 10 mg/kg, po measured upto 72 hrs by LC-MS/MS analysis; format: ADME, organism-based; details: in vivo
[8] = Stability in mouse plasma assessed as parent compound remaining measured after 2 hrs by LC-MS/MS analysis; format: ADME, cell-free; details: read-out: Stabilty
[9] = Chemical stability of compound in simulated intestinal fluid assessed as compound remaining at 5 uM measured after 3 hrs by LC-MS/MS analysis; format: ADME, physicochemical; details: read-out: Stabilty
[10] = Change in normalised AUCinfinity in rat at 10 mg/kg, po measured upto 72 hrs by LC-MS/MS analysis; format: ADME, organism-based; details: in vivo
[11] = Chemical stability of compound in simulated gastric fluid assessed as compound remaining at 5 uM measured after 24 hrs by LC-MS/MS analysis; format: ADME, physicochemical; details: read-out: Stabilty
[12] = Dose normalized Cmax in rat at 10 mg/kg, po measured upto 72 hrs by LC-MS/MS analysis; format: ADME, organism-based; details: in vivo
[13] = Chemical stability of compound in 0.1 N aqueous HCl buffer assessed as compound remaining at pH 1 at 5 uM measured after 1.5 hrs by LC-MS/MS analysis; format: physicochemical; details: pH 1, 1.5 h
[14] = Stability in rat plasma assessed as parent compound remaining measured after 2 hrs by LC-MS/MS analysis; format: ADME, cell-free; details: read-out: Stabilty
[15] = Change in normalised Cmax in rat at 10 mg/kg, po measured upto 72 hrs by LC-MS/MS analysis; format: ADME, organism-based; details: in vivo
[16] = Chemical stability of compound in simulated gastric fluid assessed as compound remaining at 5 uM measured after 1.5 hrs by LC-MS/MS analysis; format: ADME, physicochemical; details: read-out: Stabilty
[17] = Chemical stability of compound in 0.1 N aqueous HCl buffer assessed as compound remaining at pH 1 at 5 uM measured after 24 hrs by LC-MS/MS analysis; format: physicochemical; details: pH 1, 24 h
[18] = Change in AUC (infinity) in rat at 37 umol/kg, po measured upto 72 hrs by LC-MS/MS analysis; format: ADME, organism-based; details: in vivo, at 37 µmol/kg
[19] = Change in Cmax in rat at 37 umol/kg, po measured upto 72 hrs by LC-MS/MS analysis; format: ADME, organism-based; details: in vivo, at 37 µmol/kg

Compound | remaining at 6 h [1] [%] | remaining at 24 h, 5 µM [2] [%] | remaining at 24 h [3] [%] | remaining at 24 h, 5 µM [4] [%] | remaining at 6 h, 5 µM [5] [%] | remaining at 24 h, 5 µM [6] [%] | AUC/dose [7] [µM·h] | remaining at 2 h [8] [%] | remaining at 3 h, 5 µM [9] [%] | Activity [10] [%] | remaining at 24 h, 5 µM [11] [%] | Cmax/dose [12] [µM] | Stabilty [13] [%] | remaining at 2 h [14] [%] | Activity [15] [%] | remaining at 1.5 h, 5 µM [16] [%] | Stabilty [17] [%] | Activity [18] [%] | Activity [19] [%]
Cl.Cn1cc(C[C@@H](NC(=O)[C@@H](N)CCC(N)=O)C(=O)O)c2ccccc21 | 93 | 74 | 83 | 0 | 100 | 78 | 372 | 49 | 53 | -27 | 83 | 8.5 | 65 | 100 | -51 | 83 | 78 | – | –
CCOC(=O)[C@@H](Cc1cn(C)c2ccccc12)NC(=O)[C@@H](N)CC(C)C.O=S(=O)(O)O | – | – | – | – | – | – | – | – | – | – | – | – | – | – | – | – | – | -5 | -23
C[C@H](N)C(=O)N[C@H](Cc1cn(C)c2ccccc12)C(=O)O.Cl | 65 | 34 | 0 | 12 | 58 | 40 | 310 | 94 | 36 | -39 | 25 | 13.4 | 100 | 92 | -22 | 20 | 40 | – | –
Cl.Cn1cc(C[C@@H](N)C(=O)OCC(N)C(=O)O)c2ccccc21 (single isomer, unassigned) | 0 | 0 | 0 | 0 | 0 | 70 | 588 | 80 | 0 | 16 | 56 | 13.3 | 10 | 84 | -23 | 56 | 70 | – | –
CCOC(=O)[C@@H](Cc1cn(C)c2ccccc12)NC(=O)[C@@H](N)Cc1ccccc1.Cl | 68 | 96 | 11 | 0 | 96 | 90 | 329 | 0 | 65 | -35 | 86 | 7.9 | 99 | 0 | -54 | 89 | 90 | – | –
Cl.Cn1cc(C[C@@H](NC(=O)[C@@H](N)CCC(=O)O)C(=O)O)c2ccccc21 | 90 | 60 | 86 | 85 | 81 | 91 | 574 | 100 | 88 | 13 | 88 | 17.6 | 99 | 100 | 2 | 90 | 91 | – | –
CC(C)[C@H](N)C(=O)N[C@H](Cc1cn(C)c2ccccc12)C(=O)O.Cl | 79 | 44 | 47 | 76 | 91 | 99 | 338 | 57 | 78 | -33 | 50 | 14.2 | 98 | 9 | -18 | 55 | 99 | – | –
CCOC(=O)[C@@H](Cc1cn(C)c2ccccc12)NC(=O)[C@@H](N)CCC(N)=O.CS(=O)(=O)O | – | – | – | – | – | – | – | – | – | – | – | – | – | – | – | – | – | -12 | 4
CC(C)C[C@H](N)C(=O)N[C@H](Cc1cn(C)c2ccccc12)C(=O)O.Cl | 87 | 95 | 82 | 0 | 95 | 99 | 617 | 88 | 66 | 21 | 97 | 24.4 | 92 | 100 | 41 | 95 | 99 | – | –
Cl.Cn1cc(C[C@@H](N)C(=O)OCCC2CCNCC2)c2ccccc21 | 27 | 22 | 4 | 8 | 91 | 46 | 110 | 0 | 62 | -78 | 90 | 2.4 | 74 | 0 | -86 | 90 | 46 | – | –
CCOC(=O)[C@@H](Cc1cn(C)c2ccccc12)NC(=O)[C@@H](N)CCC(N)=O | – | – | – | – | – | – | – | – | – | – | – | – | – | – | – | – | – | -16 | 5
Cl.Cn1cc(C[C@@H](NC(=O)[C@@H](N)Cc2c[nH]c3ccccc23)C(=O)O)c2ccccc21 | 97 | 33 | 94 | 69 | 55 | 61 | 415 | 90 | 88 | -18 | 73 | 12 | 52 | 76 | -31 | 81 | 61 | – | –
